Among the data in ChEMBL document CHEMBL4196146, “Targeted Isolation of Neuroprotective Dicoumaroyl Neolignans and Lignans from Sageretia theezans Using in Silico Molecular Network Annotation Propagation-Based Dereplication” (J Nat Prod, 2018) are viability and Activity values, retold here.

Calls of active or inactive are those of the source. The calls are words filed in the database; no cut-off is given here.

For series [1], the system named is HT-22. Put plainly: Neuroprotective activity against glutamate-induced cell death in mouse HT22 cells assessed as cell viability at 12.5 uM pretreated for 2 hrs followed by glutamate-challenge and measured after 20 hrs by MTT assay (reference value: 23 +/- 3.57%). It counts as functional. The following applies: for viability at 12.5 µM: read-out: Activity.
Series [2] concerns HT-22. Kind of series: Neuroprotective activity against glutamate-induced cell death in mouse HT22 cells assessed as increase in cell viability at 1.6 uM pretreated for 2 hrs followed by glutamate-challenge and measured after 20 hrs by MTT assay (reference value: 23 +/- 3.57%). It counts as functional, cell-based.
For series [3], the system named is HT-22. Put plainly: Cytotoxicity against mouse HT22 cells assessed as effect on cell viability at >25 uM after 2 hrs by MTT assay. The class given is cell-based. The note with it: ht-22, 2 h.

`COc1cc(C[C@@H](COC(=O)/C=C\c2ccc(O)cc2)[C@H](COC(=O)/C=C\c2ccc(O)cc2)Cc2ccc(O)c(OC)c2)ccc1O`: the viability at 12.5 µM in the series with HT-22 [1] is 74%. Further, in the series with HT-22 [2], the outcome was Active. In the series on HT-22 [3], the Activity result is on record as “Toxic”.
As for `COc1cc([C@@H](O)[C@H](COC(=O)/C=C/c2ccc(O)cc2)Oc2ccc(/C=C/COC(=O)/C=C/c3ccc(O)cc3)cc2OC)ccc1O`, the result in the series on HT-22 [1] and in the series with HT-22 [2] was Active. In addition, the Activity result in the series with HT-22 [3] was “Toxic”.
As to `COc1cc([C@@H](O)[C@H](COC(=O)/C=C/c2ccc(O)cc2)Oc2ccc(/C=C/COC(=O)/C=C\c3ccc(O)cc3)cc2OC)ccc1O`, the result in the series with HT-22 [1] and with HT-22 [2] was Active. Also, the Activity entry in the series with HT-22 [3] is “Toxic”.
In the case of `COc1cc(C[C@@H](COC(=O)/C=C/c2ccc(O)cc2)[C@H](COC(=O)/C=C/c2ccc(O)cc2)Cc2ccc(O)c(OC)c2)ccc1O`, in the series on HT-22 [1], the viability at 12.5 µM came to 63%. For the same compound, the outcome in the series with HT-22 [2] was Active. The Activity entry in the series with HT-22 [3] is given as “Toxic”.
Take `Cc1c(C)c2c(c(C)c1O)CCC(C)(C(=O)O)O2` (stereo not drawn) [TROLOX]: the viability at 12.5 µM with HT-22 [1] came out at 52%.
For the compound `COc1cc([C@H](O)[C@H](COC(=O)/C=C/c2ccc(O)cc2)Oc2ccc(/C=C/COC(=O)/C=C/c3ccc(O)cc3)cc2OC)ccc1O`, the result in the series on HT-22 [1] and with HT-22 [2] was Active. Moreover, the Activity entry in the series with HT-22 [3] is “Toxic”.
`COc1cc([C@@H](O)[C@H](COC(=O)/C=C\c2ccc(O)cc2)Oc2ccc(/C=C/COC(=O)/C=C/c3ccc(O)cc3)cc2OC)ccc1O`: the result with HT-22 [1] and in the series with HT-22 [2] was Active. The Activity entry in the series on HT-22 [3] was “Toxic”.
Consider `COc1cc(C[C@@H](COC(=O)/C=C\c2ccc(O)cc2)[C@H](COC(=O)/C=C/c2ccc(O)cc2)Cc2ccc(O)c(OC)c2)ccc1O`, for which the viability at 12.5 µM in the series on HT-22 [1] was 73%. For the same compound, in the series with HT-22 [2], the result was Active. In addition, the Activity result with HT-22 [3] is on record as “Toxic”.
Turning to `COc1cc([C@H](O)[C@H](COC(=O)/C=C/c2ccc(O)cc2)Oc2ccc(/C=C/COC(=O)/C=C\c3ccc(O)cc3)cc2OC)ccc1O`, the result with HT-22 [1] and with HT-22 [2] was Active. In the series with HT-22 [3], the Activity entry is “Toxic”.
In the case of `COc1cc([C@H](O)[C@H](COC(=O)/C=C\c2ccc(O)cc2)Oc2ccc(/C=C/COC(=O)/C=C/c3ccc(O)cc3)cc2OC)ccc1O`, the result with HT-22 [1] and in the series on HT-22 [2] was Active. The Activity result in the series with HT-22 [3] is “Toxic”.
